Our source for the IC50 and rl/tg values is patent US6962920B2, “Pyrimidine derivatives and methods of making and using these derivatives” (Duquesne University of the Holy Ghost, priority 1992, dated 2005).

Structures are written as SMILES. pIC50: −log10 of the molar value. Where two headings read alike, the source gives them in different places.

For one experiment, the target named is T1, RL DHFR (Rattus norvegicus, UniProt Q920D2).
T1 construct: Toxoplasmosis gondii (Tg) and rat liver (RL); from tissue; host or cells: rat liver
T1 sequence (Q920D2 1-187): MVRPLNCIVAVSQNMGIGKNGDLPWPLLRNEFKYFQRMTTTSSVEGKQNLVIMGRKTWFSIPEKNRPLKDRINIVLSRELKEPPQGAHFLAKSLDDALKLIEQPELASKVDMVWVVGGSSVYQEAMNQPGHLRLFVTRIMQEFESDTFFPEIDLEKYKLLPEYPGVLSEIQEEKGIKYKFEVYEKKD
Kind of experiment: Inhibition of DHFR from rat liver. The class given is biochemical. As for the experimental part: (§1) The selectivity ratio is a measure of the selectivity of a compound for Pc DHFR or Tg DHFR and is expressed as the IC50 value of the DHFR from rate liver (RL) divided by the IC50 value of either the Pc DHFR or the Tg DHFR, depending on which organism the compounds are being tested against. For example, the selectivity ratio of a compound is calculated by the following formula: [formula]

The target in another experiment is T2, Tg DHFR (Toxoplasma gondii, UniProt Q07422).
T2 sequence (Q07422 1-610): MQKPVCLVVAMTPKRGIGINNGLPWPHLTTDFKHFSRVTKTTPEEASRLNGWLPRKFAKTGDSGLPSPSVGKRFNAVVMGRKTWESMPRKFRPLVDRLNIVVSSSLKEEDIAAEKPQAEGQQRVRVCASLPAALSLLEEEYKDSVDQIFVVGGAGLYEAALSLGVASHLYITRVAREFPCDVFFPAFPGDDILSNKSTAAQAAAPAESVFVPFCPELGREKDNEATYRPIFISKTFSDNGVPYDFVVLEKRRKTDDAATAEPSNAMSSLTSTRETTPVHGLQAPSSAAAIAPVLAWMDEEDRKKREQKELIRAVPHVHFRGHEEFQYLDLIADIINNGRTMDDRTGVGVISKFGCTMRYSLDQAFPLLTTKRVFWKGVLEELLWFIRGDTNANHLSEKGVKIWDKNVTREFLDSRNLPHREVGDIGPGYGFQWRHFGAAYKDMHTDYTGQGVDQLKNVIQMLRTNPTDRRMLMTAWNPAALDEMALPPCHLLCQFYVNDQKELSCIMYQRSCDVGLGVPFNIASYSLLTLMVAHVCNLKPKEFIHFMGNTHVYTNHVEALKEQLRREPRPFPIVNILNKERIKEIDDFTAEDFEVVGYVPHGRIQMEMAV
Kind of experiment: biochemical. It is filed as biochemical. The note with it: for rl/tg: selectivity ratio. The method, then: as §1

A further experiment deals with T3, Pc DHFR (Pneumocystis carinii, UniProt P16184).
T3 sequence (P16184 1-206): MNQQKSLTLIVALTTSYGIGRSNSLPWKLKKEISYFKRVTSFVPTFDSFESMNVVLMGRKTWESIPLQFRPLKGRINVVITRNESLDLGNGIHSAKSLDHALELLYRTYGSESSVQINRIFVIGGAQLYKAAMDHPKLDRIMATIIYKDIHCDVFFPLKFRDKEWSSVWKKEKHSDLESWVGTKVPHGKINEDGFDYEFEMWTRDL
As to the kind of experiment: biochemical.

The mark [1] stands for this setting: Table 25, read-out: Inhibitor Concentrations (IC50) rlDHFR.
The mark [2] stands for this setting: Table 7, read-out: RL DHFR IC50.
Setting [3] is: Table 7, read-out: Tg DHFR IC50.
Setting [4] is: Table 16, read-out: RL DHFR IC50.
Where [5] appears, read: Table 16, read-out: Tg DHFR IC50.
Where [6] appears, read: Table 25, read-out: Inhibitor Concentrations (IC50) tgDHFR.
The mark [7] stands for this setting: Table 16, read-out: Pc DHFR IC50.
Setting [8] is: Table 25, read-out: Inhibitor Concentrations (IC50) pcDHFR.
The mark [9] stands for this setting: Table 22, read-out: rlDHFR IC50.
Setting [10] is: Table 22, read-out: tgDHFR IC50.
Where [11] appears, read: Table 22, read-out: pcDHFR IC50.

For the molecule `Nc1nc(N)c2c(CSc3ccccc3)coc2n1` [Compound 159, 2-4-Diamino-5-[(phenylthio)methyl]furo[2,3-d]pyrimidine], the pIC50 on RL DHFR (setting [1]) is 3.60.

Regarding `CCOc1ccc(OCC)c(NCc2c[nH]c3nc(N)nc(N)c23)c1` [Compound 5, 2,4-diamino-5-[(2′,5′-diethoxyanilino)methyl]pyrrolo[2,3-d]pyrimidine], the pIC50 on RL DHFR (setting [2]) is 4.15; on Tg DHFR (setting [3]) it was 5.28; at Pc DHFR (Table 7, read-out: Pc DHFR IC50), less than 4.68.

As for `Nc1nc(N)c2c(CNc3ccccc3Oc3ccccc3)coc2n1` [Compound 165, 2,4-Diamino-5-[(2′-phenoxyanilino)methyl]furo[2,3-d]pyrimidine], the pIC50 on RL DHFR (setting [4]), at RL DHFR (setting [1]), at Tg DHFR (setting [5]), on Tg DHFR (setting [6]), on Pc DHFR (setting [7]) and at Pc DHFR (setting [8]) was less than 4.92 each time.

Regarding `Nc1nc(N)c2c(CNc3ccccc3-c3ccccc3)coc2n1` [Compound 167, 2,4-Diamino-5-[(2′-phenylanilino)methyl]furo[2,3-d]pyrimidine], the pIC50 on RL DHFR (setting [4]) was 3.73.

For `Nc1nc(N)c2c(CNc3cccc4ccccc34)coc2n1` [Compound 162, 2,4-Diamino-5-[(1-naphthylamino)methyl]furo[2,3-d]pyrimidine], the pIC50 at Tg DHFR (setting [6]) is 4.43; on Pc DHFR (setting [7]), 4.87; at Pc DHFR (setting [8]) it was 4.87.

Take `Nc1nc2[nH]cc(CNc3ccc(Cl)cc3Cl)c2c(=O)[nH]1` [Compound 414]: the pIC50 at RL DHFR (setting [9]) was less than 4.82; at Tg DHFR (setting [10]), 5.66; on Pc DHFR (setting [11]), less than 4.82. The rl/tg on Tg DHFR (Table 22) was greater than 7.

As to `Nc1nc(O)c2c(CNc3cc(Cl)cc(Cl)c3)c[nH]c2n1` [Compound 413], the pIC50 at RL DHFR (setting [9]) was less than 4.20; at Tg DHFR (setting [10]) it was 5.52; on Pc DHFR (setting [11]), 4.18. Moreover, at Tg DHFR (Table 22), the rl/tg is reported as greater than 21.

For `Nc1nc(N)c2c(CSc3cccc4ccccc34)coc2n1` [Compound 160, 2,4-Diamino-5-[(1-naphthylthio)methyl]furo[2,3-d]pyrimidine], on RL DHFR (setting [1]), the pIC50 is 4.64.

Turning to `COc1ccc(OC)c(NCc2cnc3[nH]c(N)nc(N)c2-3)c1` [Compound 4, 2,4-diamino-5-[(2′,5′-dimethoxyanilino)methyl]pyrrolo[2,3-d]pyrimidine], the figures for the pIC50 on RL DHFR (setting [2]) and at Tg DHFR (setting [3]) were 3.81 and 5.77, respectively.

Turning to `COc1ccc(OC)c(Cc2cnc3nc(N)nc(N)c3c2C)c1` [PTX, piritrexim, reference compound], at RL DHFR (setting [2]), the pIC50 is 9.00.

Take `CN(Cc1coc2nc(N)nc(N)c12)c1ccc(Cl)c(Cl)c1` [Compound 171, 2,4-Diamino-5-[(N-methyl-3′,4′-dichloroanilino)methyl]furo[2,3-d]pyrimidine]: the pIC50 is less than 4.57 on RL DHFR (setting [4]); less than 4.57 on RL DHFR (setting [1]); less than 4.57 at Tg DHFR (setting [5]); less than 4.57 at Tg DHFR (setting [6]); 4.35 on Pc DHFR (setting [7]); 4.35 at Pc DHFR (setting [8]).

Regarding `CN(Cc1coc2nc(N)nc(N)c12)c1cc(Cl)c(Cl)c(Cl)c1` [Compound 172, 2,4-Diamino-5-[(N-methyl-3′,4′,5′-trichloroanilino)methyl]furo[2,3-d]-pyrimidine], the pIC50 on Pc DHFR (setting [7]) and on Pc DHFR (setting [8]) was 3.55 in each case.

Turning to `Nc1nc(N)c2c(CNc3ccc(Oc4ccccc4)cc3)coc2n1` [Compound 166, 2,4-Diamino-5-[(4′-phenoxyanilino)methyl]furo[2,3-d]pyrimidine], the pIC50 at Tg DHFR (setting [5]) and on Tg DHFR (setting [6]) was 4.49 each time.

As to `Nc1nc(N)c2c(CSc3ccc4ccccc4c3)coc2n1` [Compound 161, 2,4-Diamino-5-[(2-naphthylthio)methyl]furo[2,3-d]pyrimidine], the pIC50 is 4.91 on RL DHFR (setting [1]), 6.18 at Pc DHFR, 6.19 at Pc DHFR (setting [7]) and 6.19 at Pc DHFR (setting [8]).
